Among the test systems are MOLT-4 leukemia; NCI-H522 lung; NCI-H23 lung; A549 NSCLC; KM12 colon; HOP-92 NSCLC; SF-268 CNS; SK-OV-3 ovarian; NCI-H226 lung; EKVX NSCLC.
Common to all, as to assay: inhibition of tumour cell growth, NCI panel, 48 h

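Results reflect a 48-hour exposure of cells in 96-well plates to compound at five concentrations. Here, GI50 denotes the concentration required for 50% inhibition of growth. TGI is the concentration that stops growth completely.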

For `C[C@]12CCC[C@H](O)[C@H]1C[C@H](CO)CC2`, the TGI with MOLT-4 leukemia, in the assay with NCI-H522 lung, in the assay with NCI-H23 lung, with A549 NSCLC, in the assay with KM12 colon and in the assay with HOP-92 NSCLC was above 100 µM each time. Besides, the TGI in the assay on SF-268 CNS, in the assay with SK-OV-3 ovarian and in the assay with NCI-H226 lung was above 100 µM each time.
As to `NC1=NN(c2ccccc2)C(=O)C1/C(=N\NC(=O)c1cc2ccccc2cc1O)C(=O)Nc1cccc(C(F)(F)F)c1` (stereo not drawn), the TGI is 65.9 µM with MOLT-4 leukemia; above 100 µM in the assay on NCI-H23 lung; above 100 µM in the assay with A549 NSCLC; above 100 µM in the assay on KM12 colon; above 100 µM with HOP-92 NSCLC; above 100 µM in the assay on SF-268 CNS. The same molecule gave a TGI with EKVX NSCLC above 100 µM.
For the molecule `O=C1C(Nc2ccc(Br)cc2)=C(I)C(=O)c2ncccc21`, the GI50 is 0.912 µM in the assay with MOLT-4 leukemia; 0.829 µM with NCI-H23 lung; 2.24 µM in the assay on A549 NSCLC; 2.05 µM with KM12 colon; 0.815 µM with HOP-92 NSCLC; 1.13 µM in the assay with SF-268 CNS. The GI50 in the assay on SK-OV-3 ovarian is 5.61 µM; in the assay with NCI-H226 lung it was 0.988 µM; in the assay on EKVX NSCLC, 3.08 µM. The TGI was determined as 3.48 µM in the assay with MOLT-4 leukemia; 2.14 µM in the assay on NCI-H23 lung; 8.18 µM with A549 NSCLC; 8.41 µM in the assay with KM12 colon; 1.61 µM with HOP-92 NSCLC; 4.94 µM with SF-268 CNS. Also, the TGI with SK-OV-3 ovarian came out at 11.6 µM; in the assay on NCI-H226 lung, 2.13 µM; in the assay on EKVX NSCLC it was 9.52 µM.
For the molecule `COC(=O)C1=CC2CC1C(S(=O)(=O)c1ccccc1)C2S(=O)(=O)c1ccccc1` (stereo not drawn), the TGI is 19.6 µM in the assay with MOLT-4 leukemia; 36.8 µM with NCI-H23 lung; 69.3 µM in the assay on A549 NSCLC; 29.4 µM in the assay on HOP-92 NSCLC; 53.5 µM in the assay with SF-268 CNS; above 100 µM in the assay with SK-OV-3 ovarian. The TGI with NCI-H226 lung was found to be 40.2 µM.
For `O=C(O)C1C2C=CC(C2)C1C(=O)O` (stereo not drawn), the GI50 in the assay with MOLT-4 leukemia, with NCI-H522 lung, in the assay on A549 NSCLC, in the assay with KM12 colon, in the assay with HOP-92 NSCLC and in the assay with SF-268 CNS was above 100 µM each time. The GI50 with SK-OV-3 ovarian and with NCI-H226 lung was above 100 µM throughout. The TGI in the assay on MOLT-4 leukemia, in the assay on NCI-H522 lung, in the assay with A549 NSCLC, with KM12 colon, with HOP-92 NSCLC and with SF-268 CNS was above 100 µM each time. Moreover, the TGI in the assay with SK-OV-3 ovarian and in the assay on NCI-H226 lung was above 100 µM in each case.
In the case of `CCOC(=O)c1ccc2c(c1)nc(/C=C/c1ccc(Cl)cc1)n2-c1cc(C(C)(C)C)[nH]n1`, the GI50 with MOLT-4 leukemia is 4.74 µM; with NCI-H522 lung, 2.84 µM; in the assay with NCI-H23 lung it was 19.3 µM; with A549 NSCLC, 3.64 µM; in the assay with KM12 colon it was 12.9 µM; in the assay on SF-268 CNS, 5.86 µM. Besides, the figures for the GI50 with SK-OV-3 ovarian and with NCI-H226 lung were 4.28 µM and 3.63 µM, respectively. For the same molecule, the TGI in the assay on MOLT-4 leukemia is above 100 µM; in the assay with NCI-H522 lung, 10.6 µM; in the assay on NCI-H23 lung, above 100 µM; with A549 NSCLC, 19.7 µM; with KM12 colon, above 100 µM; in the assay on SF-268 CNS, above 100 µM. In addition, the TGI with SK-OV-3 ovarian amounted to 14.8 µM; in the assay with NCI-H226 lung, 27.2 µM.
As to `NC(=O)c1ncn(CCN2CCN(C(=O)NCCCCCCNC(=O)N3CCN(CCn4cnc(C(N)=O)c4N)CC3)CC2)c1N`, the TGI in the assay on MOLT-4 leukemia, in the assay with NCI-H23 lung, in the assay with A549 NSCLC, in the assay with KM12 colon, in the assay with HOP-92 NSCLC and in the assay with SF-268 CNS was above 100 µM throughout. The TGI with SK-OV-3 ovarian, in the assay on NCI-H226 lung and in the assay on EKVX NSCLC was above 100 µM in each case.
With `O=c1c2c(c3ccccc3n1-c1ccccc1)NC(=S)NC2c1ccc(Cl)cc1` (stereo not drawn), the GI50 with MOLT-4 leukemia is 4.17 µM; in the assay on NCI-H23 lung it was 2.74 µM; with A549 NSCLC, 4.25 µM; in the assay with KM12 colon it was 1.88 µM; in the assay with HOP-92 NSCLC, 2.38 µM; in the assay with SF-268 CNS, 3.28 µM. Moreover, the results for the GI50 with SK-OV-3 ovarian, in the assay on NCI-H226 lung and with EKVX NSCLC were 9.15 µM, 5.36 µM and 2.91 µM, respectively. Moreover, the TGI in the assay with MOLT-4 leukemia was above 100 µM; in the assay with NCI-H23 lung it was 50.7 µM; in the assay with A549 NSCLC, above 100 µM; in the assay on KM12 colon, 11.7 µM; in the assay on HOP-92 NSCLC, 19 µM; with SF-268 CNS, above 100 µM. In addition, the TGI in the assay with SK-OV-3 ovarian turned out to be 65 µM; in the assay with NCI-H226 lung it was 37.4 µM; in the assay on EKVX NSCLC it was 94.4 µM.
Consider `Cn1cc(-c2csc(-c3cn(CCCCN4CCCCC4)c4ccc(F)cc34)n2)c2cccnc21`, for which the GI50 in the assay on NCI-H23 lung is 1.69 µM; in the assay with A549 NSCLC, 1.67 µM; with HOP-92 NSCLC it was 4.81 µM; in the assay with SF-268 CNS, 1.68 µM; in the assay on SK-OV-3 ovarian it was 16.2 µM; in the assay on NCI-H226 lung, 1.68 µM. For the same molecule, the TGI is 3.2 µM with NCI-H23 lung; 3.04 µM with A549 NSCLC; 27.8 µM with HOP-92 NSCLC; 3.32 µM in the assay with SF-268 CNS; 32.7 µM with SK-OV-3 ovarian; 3.38 µM in the assay on NCI-H226 lung.
Consider `O=[N+]([O-])c1ccc(Sc2nc(Cl)nc(NC3CCCC3)n2)cc1`, for which the GI50 in the assay with MOLT-4 leukemia, with NCI-H23 lung, in the assay with KM12 colon, in the assay with HOP-92 NSCLC, with SF-268 CNS and in the assay on SK-OV-3 ovarian was above 10 µM in each case. Also, the GI50 in the assay on NCI-H226 lung was above 10 µM. The TGI in the assay with MOLT-4 leukemia, in the assay on NCI-H23 lung, in the assay with KM12 colon, with HOP-92 NSCLC, in the assay with SF-268 CNS and in the assay on SK-OV-3 ovarian was above 10 µM in each case. Besides, the TGI in the assay with NCI-H226 lung is above 10 µM.
In the case of `CC(=O)[CH-]C(=O)c1ccccc1.CC(=O)[CH-]C(=O)c1ccccc1.CC1(C)OCC(C2OC3OC(C)(C)OC3C2[O-])O1.CC1(C)OCC(C2OC3OC(C)(C)OC3C2[O-])O1.[Ti+4]` (stereo not drawn), the GI50 with MOLT-4 leukemia is 7.39 µM; in the assay on NCI-H23 lung, 18.2 µM; in the assay on A549 NSCLC it was 15.3 µM; in the assay with KM12 colon, 13.2 µM; in the assay with HOP-92 NSCLC, 6.84 µM; with SF-268 CNS it was 11.6 µM. Moreover, the GI50 in the assay with SK-OV-3 ovarian is 14.9 µM; in the assay on EKVX NSCLC, 14.1 µM. The TGI in the assay on MOLT-4 leukemia is above 100 µM; with NCI-H23 lung, 38.3 µM; in the assay on A549 NSCLC, 38 µM; in the assay with KM12 colon it was 42.8 µM; in the assay with HOP-92 NSCLC, 22.8 µM; in the assay with SF-268 CNS it was 30 µM. For the same molecule, the results for the TGI in the assay with SK-OV-3 ovarian and in the assay with EKVX NSCLC were 50.3 µM and 30.1 µM, respectively.
Consider `CCOC(=O)C1=C(C)N(Cc2ccccc2)C(=O)C1CC#N` (stereo not drawn), for which the TGI with MOLT-4 leukemia is above 100 µM; in the assay on NCI-H23 lung, above 100 µM; in the assay with A549 NSCLC it was above 100 µM; in the assay on KM12 colon, above 100 µM; in the assay with HOP-92 NSCLC it was 82.5 µM; in the assay with SK-OV-3 ovarian it was above 100 µM. Also, in the assay with EKVX NSCLC, the TGI is above 100 µM.
On to `CCN(Cc1ccccc1Cl)c1ccc(CO)c(Cl)c1`, for which the GI50 is 15.8 µM in the assay with MOLT-4 leukemia; 11.5 µM in the assay on NCI-H522 lung; 7.44 µM in the assay with NCI-H23 lung; 3.06 µM with A549 NSCLC; 13.4 µM in the assay on KM12 colon; 0.932 µM with HOP-92 NSCLC. For the same molecule, the GI50 was 15.5 µM with SF-268 CNS, 8.82 µM in the assay with SK-OV-3 ovarian and 0.0295 µM in the assay on NCI-H226 lung. Further, the TGI in the assay with MOLT-4 leukemia amounted to 38.1 µM; in the assay on NCI-H522 lung, 25.4 µM; in the assay with NCI-H23 lung, 22.6 µM; in the assay with A549 NSCLC, 18.7 µM; in the assay with KM12 colon it was 28.7 µM; with HOP-92 NSCLC, 8.25 µM. In addition, the TGI in the assay with SF-268 CNS turned out to be 30 µM; with SK-OV-3 ovarian it was 21.2 µM; in the assay on NCI-H226 lung, 0.122 µM.
As to `CCN(CC)CCOc1ccc(/C=C2\C[C@H]3[C@H]4CC=C5C[C@@H](O)CC[C@]5(C)[C@H]4CC[C@]3(C)[C@H]2O)cc1OC`, the GI50 in the assay on MOLT-4 leukemia was 10.5 µM; in the assay with NCI-H522 lung, 0.216 µM; in the assay on NCI-H23 lung it was 11.2 µM; in the assay with A549 NSCLC it was 10.7 µM; in the assay on KM12 colon, 8.1 µM; in the assay with SF-268 CNS, 14.9 µM. Besides, the GI50 in the assay on NCI-H226 lung was 7.71 µM. Moreover, the TGI in the assay with MOLT-4 leukemia is above 50 µM; in the assay on NCI-H522 lung it was above 50 µM; in the assay on NCI-H23 lung, 23.9 µM; in the assay with A549 NSCLC, 25 µM; in the assay with KM12 colon, 17 µM; in the assay with SF-268 CNS, 47 µM. For the same molecule, the TGI in the assay with NCI-H226 lung is 16 µM.
For `COC1=C(Br)C(O)C2(C=C1Br)CC(C(=O)NCCCCNC(=O)C1=NOC3(C=C(Br)C(OC)=C(Br)C3O)C1)=NO2` (stereo not drawn), the TGI in the assay with NCI-H522 lung was 29.8 µM; with NCI-H23 lung, above 100 µM; with A549 NSCLC it was above 100 µM; in the assay with KM12 colon, 27.3 µM; in the assay on HOP-92 NSCLC it was 94.9 µM; with SF-268 CNS it was 45.1 µM. The TGI in the assay on SK-OV-3 ovarian is above 100 µM; in the assay with NCI-H226 lung, 41.2 µM.
Regarding `COC(=O)C1=Cc2cc(OC)c(OC)cc2[C@H](c2ccc(OC)c(OC)c2)C1C(=O)OC` (stereo partly drawn), the TGI with MOLT-4 leukemia, with NCI-H23 lung, in the assay on A549 NSCLC, in the assay with KM12 colon, in the assay on HOP-92 NSCLC and with SF-268 CNS was above 100 µM each time. Besides, the TGI with SK-OV-3 ovarian, with NCI-H226 lung and with EKVX NSCLC was above 100 µM each time.

For the origin of these results see PubChem BioAssay (NCI).
